In patent publication US8574563B2 (Bristol-Myers Squibb Company, priority 2006, dated 2013):
Where two headings read alike, the source gives them in different places.

Test system: HCV 1b-377-neo replicon cells
Test: HCV replicon assay, HCV 1b-377-neo replicon cells (1b FRET)
Format: cell-based, Hepatitis C virus genotype 1b
Settings: HCV 1b-377-neo replicon cells, HCV 1b genotype, read-out: EC50 range against HCV 1b (Table 2, Range)
Procedure, shortened: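 Compounds were tested in genotype 1b subgenomic replicon cells carrying a neomycin marker, alongside a matched replicon line with an NS5A Y2065H substitution that confers resistance to a reference NS5A inhibitor.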

Compound | EC50 (Hepatitis C virus) [nM] | EC50 [nM]
O=C1CN(C(C(=O)N2CCC[C@H]2c2ncc(-c3ccc(-c4ccc(-c5c[nH]c([C@@H]6CCCN6C(=O)[C@H]6CCCO6)n5)cc4)cc3)[nH]2)c2ccccc2)CCN1 (stereo partly drawn) [Example 103-8, 4-(2-oxo-1-phenyl-2-((2S)-2-(5-(4′-(2-((2S)-1-((2R)-tetrahydro-2-furanylcarbonyl)-2-pyrrolidinyl)-1H-imidazol-4-yl)-4-biphenylyl)-1H-imidazol-2-yl)-1-pyrrolidinyl)ethyl)-2-piperazinone] | 0.001 to 0.999 | 
CN1CCN(C(C(=O)N2CCC[C@H]2c2ncc(-c3ccc(-c4ccc(-c5cnc([C@@H]6CCCN6C(=O)[C@@H]6CCCO6)[nH]5)cc4)cc3)[nH]2)c2ccccc2)CC1 (stereo partly drawn) [Example 104, 1-methyl-4-(2-oxo-1-phenyl-2-((2S)-2-(5-(4′-(2-((2S)-1-((2S)-tetrahydro-2-furanylcarbonyl)-2-pyrrolidinyl)-1H-imidazol-5-yl)-4-biphenylyl)-1H-imidazol-2-yl)-1-pyrrolidinyl)ethyl)piperazine] | 0.001 to 0.999 | 
O=C([C@@H]1CCCO1)N1CCC[C@H]1c1ncc(-c2ccc(-c3ccc(-c4cnc([C@@H]5CCCN5C(=O)[C@@H](c5ccccc5)N5CCOCC5)[nH]4)cc3)cc2)[nH]1 [Example 105, 4-((1R)-2-oxo-1-phenyl-2-((2S)-2-(5-(4′-(2-((2S)-1-((2S)-tetrahydro-2-furanylcarbonyl)-2-pyrrolidinyl)-1H-imidazol-5-yl)-4-biphenylyl)-1H-imidazol-2-yl)-1-pyrrolidinyl)ethyl)morpholine] | 0.001 to 0.999 | 
CCN(CC)[C@@H](C(=O)N1CCC[C@H]1c1ncc(-c2ccc(-c3ccc(-c4cnc([C@@H]5CCCN5C(=O)[C@@H]5CCCO5)[nH]4)cc3)cc2)[nH]1)c1ccccc1 [Example 106, (1R)-N,N-diethyl-2-oxo-1-phenyl-2-((2S)-2-(5-(4′-(2-((2S)-1-((2S)-tetrahydro-2-furanylcarbonyl)-2-pyrrolidinyl)-1H-imidazol-5-yl)-4-biphenylyI)-1H-imidazol-2-yl)-1-pyrrolidinyl)ethanamine] |  | 0.001 to 0.999
CCN(C)[C@@H](C(=O)N1CCC[C@H]1c1ncc(-c2ccc(-c3ccc(-c4cnc([C@@H]5CCCN5C(=O)[C@@H]5CCCO5)[nH]4)cc3)cc2)[nH]1)c1ccccc1 [Example 107, (1R)-N-ethyl-N-methyl-2-oxo-1-phenyl-2-((2S)-2-(5-(4′-(2-((2S)-1-((2S)-tetrahydro-2-furanylcarbonyl)-2-pyrrolidinyl)-1H-imidazol-5-yl)-4-biphenylyl)-1H-imidazol-2-yl)-1-pyrrolidinyl)ethanamine] | 0.001 to 0.999 | 
CC1(O)CCN([C@@H](C(=O)N2CCC[C@H]2c2ncc(-c3ccc(-c4ccc(-c5cnc([C@@H]6CCCN6C(=O)[C@@H](c6ccccc6)N6CCCCC6)[nH]5)cc4)cc3)[nH]2)c2ccccc2)CC1 [Example 107-2, 4-methyl-1-((1R)-2-oxo-1-phenyl-2-((2S)-2-(5-(4′-(2-((2S)-1-((2R)-2-phenyl-2-(1-piperidinyl)acetyl)-2-pyrrolidinyl)-1H-imidazol-5-yl)-4-biphenylyl)-1H-imidazol-2-yl)-1-pyrrolidinyl)ethyl)-4-piperidinol] | 0.001 to 0.999 | 
O=C(c1ccccc1F)N1CCC[C@H]1c1ncc(-c2ccc(-c3ccc(-c4cnc([C@@H]5CCCN5C(=O)[C@@H](c5ccccc5)N5CCCCC5)[nH]4)cc3)cc2)[nH]1 [Example 107-3, 1-((1R)-2-((2S)-2-(5-(4′-(2-((2S)-1-(2-fluorobenzoyl)-2-pyrrolidinyl)-1H-imidazol-5-yl)-4-biphenylyl)-1H-imidazol-2-yl)-1-pyrrolidinyl)-2-oxo-1-phenylethyl) piperidine] | 0.001 to 0.999 | 
CN(C)c1ccc(C(=O)N2CCC[C@H]2c2ncc(-c3ccc(-c4ccc(-c5cnc([C@@H]6CCCN6C(=O)[C@@H](c6ccccc6)N6CCCCC6)[nH]5)cc4)cc3)[nH]2)cc1 [Example 107-4, N,N-dimethyl-4-(((2S)-2-(5-(4′-(2-((2S)-1-((2R)-2-phenyl-2-(1-piperidinyl)acetyl)-2-pyrrolidinyl)-1H-imidazol-5-yl)-4-biphenylyl)-1H-imidazol-2-yl)-1-pyrrolidinyl)carbonyl)aniline] | 0.001 to 0.999 | 
CC(=O)CCC(=O)N1CCC[C@H]1c1ncc(-c2ccc(-c3ccc(-c4cnc([C@@H]5CCCN5C(=O)[C@@H](c5ccccc5)N5CCCCC5)[nH]4)cc3)cc2)[nH]1 [Example 107-5, 5-oxo-5-((2S)-2-(5-(4′-(2-((2S)-1-((2R)-2-phenyl-2-(1-piperidinyl)acetyl)-2-pyrrolidinyl)-1H-imidazol-5-yl)-4-biphenylyl)-1H-imidazol-2-yl)-1-pyrrolidinyl)-2-pentanone] | 0.001 to 0.999 | 
O=C(C(c1ccccc1)c1ccccc1)N1CCC[C@H]1c1ncc(-c2ccc(-c3ccc(-c4cnc([C@@H]5CCCN5C(=O)[C@@H](c5ccccc5)N5CCCCC5)[nH]4)cc3)cc2)[nH]1 [Example 107-6, 1-((1R)-2-((2S)-2-(5-(4′-(2-((2S)-1-(diphenylacetyl)-2-pyrrolidinyl)-1H-imidazol-5-yl)-4-biphenylyl)-1H-imidazol-2-yl)-1-pyrrolidinyl)-2-oxo-1-phenylethyl) piperidine] | 0.001 to 0.999 | 
O=C(CCN1CCCCC1)N1CCC[C@H]1c1ncc(-c2ccc(-c3ccc(-c4cnc([C@@H]5CCCN5C(=O)[C@@H](c5ccccc5)N5CCCCC5)[nH]4)cc3)cc2)[nH]1 [Example 107-7, 1-(3-oxo-3-((2S)-2-(5-(4′-(2-((2S)-1-((2R)-2-phenyl-2-(1-piperidinyl)acetyl)-2-pyrrolidinyl)-1H-imidazol-5-yl)-4-biphenylyl)-1H-imidazol-2-yl)-1-pyrrolidinyl)propyl)piperidine] | 0.001 to 0.999 | 
COc1ccccc1OCC(=O)N1CCC[C@H]1c1ncc(-c2ccc(-c3ccc(-c4cnc([C@@H]5CCCN5C(=O)[C@@H](c5ccccc5)N5CCCCC5)[nH]4)cc3)cc2)[nH]1 [Example 107-8, 1-((1R)-2-((2S)-2-(5-(4′-(2-((2S)-1-((2-methoxyphenoxy)acetyl)-2-pyrrolidinyl)-1H-imidazol-5-yl)-4-biphenylyl)-1H-imidazol-2-yl)-1-pyrrolidinyl)-2-oxo-1-phenylethyl) piperidine] | 0.001 to 0.999 | 
CC(C)(C)OC(=O)N1CCC(C(=O)N2CCC[C@H]2c2ncc(-c3ccc(-c4ccc(-c5cnc([C@@H]6CCCN6C(=O)[C@@H](c6ccccc6)N6CCCCC6)[nH]5)cc4)cc3)[nH]2)CC1 [Example 107-9, tert-butyl 4-(((2S)-2-(5-(4′-(2-((2S)-1-((2R)-2-phenyl-2-(1-piperidinyl)acetyl)-2-pyrrolidinyl)-1H-imidazol-5-yl)-4-biphenylyl)-1H-imidazol-2-yl)-1-pyrrolidinyl)carbonyl)-1-piperidinecarboxylate] | 0.001 to 0.999 | 
O=C(c1ccc(N2CCOCC2)cc1)N1CCC[C@H]1c1ncc(-c2ccc(-c3ccc(-c4cnc([C@@H]5CCCN5C(=O)[C@@H](c5ccccc5)N5CCCCC5)[nH]4)cc3)cc2)[nH]1 [Example 107-10, 4-(4-(((2S)-2-(5-(4′-(2-((2S)-1-((2R)-2-phenyl-2-(1-piperidinyl)acetyl)-2-pyrrolidinyl)-1H-imidazol-5-yl)-4-biphenylyl)-1H-imidazol-2-yl)-1-pyrrolidinyl)carbonyl)phenyl) morpholine] | 0.001 to 0.999 | 
O=C(c1cscn1)N1CCC[C@H]1c1ncc(-c2ccc(-c3ccc(-c4cnc([C@@H]5CCCN5C(=O)[C@@H](c5ccccc5)N5CCCCC5)[nH]4)cc3)cc2)[nH]1 [Example 107-11, 1-((1R)-2-oxo-1-phenyl-2-((2S)-2-(5-(4′-(2-((2S)-1-(1,3-thiazo1-4-ylcarbonyl)-2-pyrrolidinyl)-1H-imidazol-5-yl)-4-biphenylyl)-1H-imidazol-2-yl)-1-pyrrolidinyl)ethyl)piperidine] | 0.001 to 0.999 | 
CC(C)(C)OC(=O)N1CC(C(=O)N2CCC[C@H]2c2ncc(-c3ccc(-c4ccc(-c5cnc([C@@H]6CCCN6C(=O)[C@@H](c6ccccc6)N6CCCCC6)[nH]5)cc4)cc3)[nH]2)C1 [Example 107-12, tert-butyl 3-(((2S)-2-(5-(4′-(2-((2S)-1-((2R)-2-phenyl-2-(1-piperidinyl)acetyl)-2-pyrrolidinyl)-1H-imidazol-5-yl)-4-biphenylyl)-1H-imidazol-2-yl)-1-pyrrolidinyl)carbonyl)-1-azetidinecarboxylate] | 0.001 to 0.999 | 
CC(C)(C)OC(=O)N[C@H]1CC[C@@H](C(=O)N2CCC[C@H]2c2ncc(-c3ccc(-c4ccc(-c5cnc([C@@H]6CCCN6C(=O)[C@@H](c6ccccc6)N6CCCCC6)[nH]5)cc4)cc3)[nH]2)CC1 [Example 107-13, tert-butyl (cis-4-(((2S)-2-(5-(4′-(2-((2S)-1-((2R)-2-phenyl-2-(1-piperidinyl)acetyl)-2-pyrrolidinyl)-1H-imidazol-5-yl)-4-biphenylyl)-1H-imidazol-2-yl)-1-pyrrolidinyl)carbonyl)cyclohexyl) carbamate] | 0.001 to 0.999 | 
CC(C)(C)OC(=O)N1CCC(C)(C(=O)N2CCC[C@H]2c2ncc(-c3ccc(-c4ccc(-c5cnc([C@@H]6CCCN6C(=O)[C@@H](c6ccccc6)N6CCCCC6)[nH]5)cc4)cc3)[nH]2)CC1 [Example 107-14, tert-butyl 4-methyl-4-(((2S)-2-(5-(4′-(2-((2S)-1-((2R)-2-phenyl-2-(1-piperidinyl)acetyl)-2-pyrrolidinyl)-1H-imidazol-5-yl)-4-biphenylyl)-1H-imidazol-2-yl)-1-pyrrolidinyl)carbonyl)-1-piperidinecarboxylate] | 0.001 to 0.999 | 
O=C([C@@H](c1ccccc1)N1CCCCC1)N1CCC[C@H]1c1ncc(-c2ccc(-c3ccc(-c4cnc([C@@H]5CCCN5C(=O)C5(C(F)(F)F)CC5)[nH]4)cc3)cc2)[nH]1 [Example 107-15, 1-((1R)-2-oxo-1-phenyl-2-((2S)-2-(5-(4′-(2-((2S)-1-((1-(trifluoromethyl)cyclopropyl)carbonyl)-2-pyrrolidinyl)-1H-imidazol-5-yl)-4-biphenylyl)-1H-imidazol-2-yl)-1-pyrrolidinyl)ethyl)piperidine] | 0.001 to 0.999 | 
